Legend:
[1] = Pharmacokinetics: plasma concentration after oral administration to rats; format: in vivo, rat; conditions: 10 mg/kg; for AUC(0-inf) / Cmax: Crl:CD(SD) (Sprague-Dawley), male rat (Crl: CD (SD)), plasma
Experimental: The required amounts of compounds were weighed, and drug suspensions were prepared in 0.5% hydroxypropyl methylcellulose. The number of rats in each group was two, and each drug suspension was administered orally to each male rat (Crl: CD (SD)) using an oral sonde (the dose of the compound was 10 mg/kg). At each blood collection point (0.5, 1, 2, 4, 8, and 24 hours after administration), blood was collected from the jugular vein using a syringe and a needle (the anticoagulant was heparin sodium). The collected blood was centrifuged (13000 rpm, 2 min, 4° C.) to prepare plasma, followed by deproteinization. Thereafter, the concentration of the compound in the plasma was measured by LC/MS/MS (ICMS-8040 (Shimadzu Corporation) or API 4000 (AB Sciex), IC: 30-A and 20-A series (Shimadzu Corporation) or Waters Acquity (Waters Corporation)).

ND3 neuronal cell line = experiment: Measurement of nerve growth stimulation effect (neurite bearing assay, neurite length assay, number of cells); format: cell-based; conditions: for viability at 1 µM / viability at 3 µM / viability at 5 µM / viability at 10 µM / viability at 30 µM / viability at 100 µM: 6 hours, relative cell number, DMSO well = 1
In short: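 ND3 cells were exposed 6 h to compounds in DMEM with 0.1% BSA (0.1% DMSO final), in duplicate. Neurite-bearing fraction (neurite longer than cell-body diameter) and neurite length per cell were scored by imaging and expressed relative to compound 24 maximum. Cell number was relative to DMSO wells; data with relative count <0.5 were excluded.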

[2] = test system: streptozotocin (STZ)-induced DM model SD rats; experiment: Evaluation of drug efficacy in diabetes mellitus (DM) rat model (bladder function, residual urine volume); format: in vivo; conditions: oral twice a day for 4 weeks
Experimental: To examine the effect of the compound in a diabetes mellitus model, bladder function was analyzed by […] based on the method of Saitoh et al. (European Journal of Pharmacology 501 (2004) 143-149).
A streptozotocin (STZ) solution obtained by dissolving STZ in a citrate buffer solution (0.1 M citric acid, pH of 4.2) to a concentration of 32.5 mg/mL was prepared, and administered intraperitoneally (65 mg/kg) to SD rats to induce DM models. The same procedure was performed on sham rats except that a citrate buffer solution was used in place of the STZ solution.
On the day after the model production and 4 weeks later, a blood sample was taken from the tail vein with the rats awake to measure the blood glucose level. […] Individuals with a blood glucose level of 300 mg/dL or more on the day after the production of the model and 4 weeks later were determined to be established DM models and used in subsequent operations. […]
A pressure transducer (DX-360, Nihon Kohden Kogyo Co., Ltd.) and an infusion pump (TE-331S, Terumo Corporation) were connected via a three-way valve to the other end of a catheter inserted into the bladder. […] The volume of urination was automatically measured using an electronic balance (GX-200, A&D Company Limited) set directly under the holding cage, and recorded continuously on a computer using a PowerLab (sampling rate: 20/sec). […]

AUC(0-inf) [1] [nM·h]	Cmax [1] [µM]	improvement in area under the curve (AUC) as compared to the compound 4 ([1]; rat) [times]	improvement in maximum blood concentration Cmax as compared to the compound 4 ([1]; rat) [times]	SMILES	viability at 1 µM (ND3 neuronal cell line) [%]	viability at 3 µM (ND3 neuronal cell line) [%]	viability at 5 µM (ND3 neuronal cell line) [%]	viability at 10 µM (ND3 neuronal cell line) [%]	viability at 30 µM (ND3 neuronal cell line) [%]	viability at 100 µM (ND3 neuronal cell line) [%]	number of relative cells (ND3 neuronal cell line; 1 to 100 μM)	drug efficacy (residual urine volume, FIG. 1) as compared to the compound 4 [2]
3	0.002			CC1=C(CCCCCCCCCCCCCCCO)C(C)(C)CCC1=O [Compound 4, 3-(15-hydroxypentadecyl)-2,4,4-trimethylcyclohex-2-en-1-one, reference compound]	103	92	92	101	19			
5900	2.2	≥ 1900	≥ 1100	COCCCCCCCCCCCCCCCC1=C(C)C(=O)CCC1(C)C [Compound 24, 3-(15-methoxypentadecyl)-2,4,4-trimethylcyclohex-2-en-1-one]	106	101	94	92	96	92	≥ 0.5	remarkable drug efficacy
				[2H]C([2H])(CCCCCCCCCCCCCCC1=C(C)C(=O)CCC1(C)C)OC [Compound 28, 3-(15-methoxypentadecyl-15,15-d2)-2,4,4-trimethylcyclohex-2-en-1-one]	92	86	71	68	77	86		

Source: patent publication US20230295068A1, “NOVEL CYCLOALKENONE COMPOUND OR SALT THEREOF” (TAIHO PHARMACEUTICAL CO., LTD., priority 2020, published 2023)
